Tested on: Alternaria brassicae
Assay: In vivo test of activity on Alternaria brassicae (crucifer black spot) on radish
Conditions: preventive spray 24 h before inoculation
Method: In Vivo Test of Activity on Alternaria brassicae (Crucifer Black Spot)
An aqueous solution of the active material to be tested is prepared at a concentration of 2 g/l by grinding in solution 1 or solution 2:
• Water • Tween 80 diluted to 10% in water: 5 μl/mg of active material • Clay in a sufficient amount for active material+clay to equal 100 mg; Solution 2
Concentrated solution containing surfactants and adjuvants conventionally used: 200 μl/mg of active material.
The aqueous solution is diluted with water so as to obtain the desired concentration.
Radishes of the Pernot variety are sown in a 50/50 pozzolan/peat substrate and maintained at 18-22° C. The treatment is carried out by spraying the aqueous suspension. The untreated control plants are sprayed with water. 24 hours after treatment, the plants are inoculated by spraying a solution of Alternaria brassicae spores (40 000 spores/ml) originating from a 12-day culture.
The radish plants are then maintained at 18-20° C. in a humid atmosphere. The effectiveness of the products is evaluated relative to the control plants after seven to eight days of incubation.
The effectiveness of the molecules is estimated, at 500 g/ha, 250 g/ha or 330 ppm, by the percentage of control relative to untreated plants. Under these conditions, good effectiveness is defined as more than 80% effectiveness. Average effectiveness is defined as an effectiveness between 50 and 80%. Poor effectiveness is defined as an effectiveness between 10 and 50% and zero effectiveness is defined as less than 10% effectiveness.

Row | Compound | effectiveness (percentage of control relative to untreated plants) (330 ppm) | also measured
1 | COc1cc(I)c(C(=O)NCCc2ncc(C(F)(F)F)cc2Cl)cc1OC [Compound A-189] | good to average | –
2 | CS(=O)(=O)c1cc(C(F)(F)F)ccc1C(=O)NCCc1ncc(C(F)(F)F)cc1Cl [Compound A-139] | good to average | –
3 | Cc1cc(C(=O)NCCc2ncc(C(F)(F)F)cc2Cl)c([N+](=O)[O-])cc1C [Compound A-156] | good to average | –
4 | Cc1ccc(C)c(C(=O)NCCc2ncc(C(F)(F)F)cc2Cl)c1 [Compound A-62] | good to average | –
5 | O=C(NCCc1ncc(C(F)(F)F)cc1Cl)c1cc(Cl)ccc1Cl [Compound A-49] | good to average | –
6 | Cc1ccc(Cl)c(C(=O)NCCc2ncc(C(F)(F)F)cc2Cl)c1 [Compound A-184] | good to average | –
7 | O=C(NCCc1ncc(C(F)(F)F)cc1Cl)c1ccc(Cl)c(C(F)(F)F)c1 [Compound A-147] | good to average | –
8 | COc1cc(OC)cc(C(=O)NCCc2ncc(C(F)(F)F)cc2Cl)c1 [Compound A-14] | – | effectiveness (percentage of control relative to untreated plants) (500 g/ha): good to average
9 | Cc1cc(C(=O)NCCc2ncc(C(F)(F)F)cc2Cl)c(Cl)c(C)c1F [Compound A-123] | good to average | –
10 | CSc1c(Br)ccc(C(=O)NCCc2ncc(C(F)(F)F)cc2Cl)c1F [Compound A-168] | good to average | –
11 | O=C(NCCc1ncc(C(F)(F)F)cc1Cl)c1cccc(C(F)(F)F)c1 [Compound A-28] | – | effectiveness (percentage of control relative to untreated plants) (250 g/ha): good to average
12 | O=C(NCCc1ncc(C(F)(F)F)cc1Cl)c1cccc(Cl)c1Cl [Compound A-48] | good to average | –
13 | O=C(NCCc1ncc(C(F)(F)F)cc1Cl)c1ccccc1[N+](=O)[O-] [Compound A-29] | – | effectiveness (percentage of control relative to untreated plants) (250 g/ha): good to average
14 | O=C(NCCc1ncc(C(F)(F)F)cc1Cl)c1cc(I)ccc1Cl [Compound A-185] | good to average | –
15 | Cc1c(C(=O)NCCc2ncc(C(F)(F)F)cc2Cl)cccc1[N+](=O)[O-] [Compound A-77] | good to average | –
16 | CSc1ccc(C(=O)NCCc2ncc(C(F)(F)F)cc2Cl)c(C)c1 [Compound A-142] | good to average | –
17 | O=C(NCCc1ncc(C(F)(F)F)cc1Cl)c1ccc(Cl)c(Br)c1 [Compound A-141] | good to average | –
18 | O=C(NCCc1ncc(C(F)(F)F)cc1Cl)c1cc(F)c(F)cc1F [Compound A-41] | – | effectiveness (percentage of control relative to untreated plants) (250 g/ha): good to average
19 | Cc1c(C(=O)NCCc2ncc(C(F)(F)F)cc2Cl)ccc(Cl)c1F [Compound A-162] | good to average | –
20 | COc1cc(Cl)c(C(=O)NCCc2ncc(C(F)(F)F)cc2Cl)cc1OC [Compound A-181] | good to average | –

Row | Compound | effectiveness (percentage of control relative to untreated plants) (330 ppm) | also measured
21 | O=C(NCCc1ncc(C(F)(F)F)cc1Cl)c1ccc(C(F)(F)F)cc1C(F)(F)F [Compound A-74] | good to average | –
22 | O=C(NCCc1ncc(C(F)(F)F)cc1Cl)c1cc(I)c(O)c(I)c1 [Compound A-169] | good to average | –
23 | CSc1cc(C(F)(F)F)ccc1C(=O)NCCc1ncc(C(F)(F)F)cc1Cl [Compound A-143] | good to average | –
24 | O=C(NCCc1ncc(C(F)(F)F)cc1Cl)c1cc(F)c(F)cc1Cl [Compound A-107] | good to average | –
25 | COc1ccc(C(=O)NCCc2ncc(C(F)(F)F)cc2Cl)cc1OC [Compound A-13] | – | effectiveness (percentage of control relative to untreated plants) (500 g/ha): good to average
26 | Cc1ccc(I)c(C(=O)NCCc2ncc(C(F)(F)F)cc2Cl)c1 [Compound A-177] | good to average | –
27 | CSc1ccc(C(=O)NCCc2ncc(C(F)(F)F)cc2Cl)c(Br)c1 [Compound A-150] | good to average | –
28 | Cc1ccc([N+](=O)[O-])cc1C(=O)NCCc1ncc(C(F)(F)F)cc1Cl [Compound A-79] | good to average | –
29 | CSc1c(C(=O)NCCc2ncc(C(F)(F)F)cc2Cl)ccc(Cl)c1Cl [Compound A-144] | good to average | –
30 | Cc1cccc(C(=O)NCCc2ncc(C(F)(F)F)cc2Cl)c1Cl [Compound A-178] | good to average | –
31 | O=C(NCCc1ncc(C(F)(F)F)cc1Cl)c1c(F)cccc1Br [Compound A-112] | good to average | –
32 | CCc1cc(Br)ccc1C(=O)NCCc1ncc(C(F)(F)F)cc1Cl [Compound A-152] | good to average | –
33 | O=C(NCCc1ncc(C(F)(F)F)cc1Cl)c1cc(Cl)ccc1Br [Compound A-100] | good to average | –
34 | O=C(NCCc1ncc(C(F)(F)F)cc1Cl)c1cc(Br)ccc1I [Compound A-183] | good to average | –
35 | Cc1cc(Br)ccc1C(=O)NCCc1ncc(C(F)(F)F)cc1Cl [Compound A-80] | good to average | –
36 | CS(=O)(=O)c1ccc(C(=O)NCCc2ncc(C(F)(F)F)cc2Cl)c(Br)c1 [Compound A-137] | good to average | –
37 | O=C(NCCc1ncc(C(F)(F)F)cc1Cl)c1cccc(F)c1Br [Compound A-122] | good to average | –
38 | O=C(NCCc1ncc(C(F)(F)F)cc1Cl)c1c(F)ccc(F)c1Cl [Compound A-113] | good to average | –
39 | COc1c(F)ccc(C(=O)NCCc2ncc(C(F)(F)F)cc2Cl)c1SC [Compound A-148] | good to average | –
40 | Cc1cccc(C(=O)NCCc2ncc(C(F)(F)F)cc2Cl)c1Br [Compound A-180] | good to average | –

Row | Compound | effectiveness (percentage of control relative to untreated plants) (330 ppm) | also measured
41 | Cc1ccc(F)cc1C(=O)NCCc1ncc(C(F)(F)F)cc1Cl [Compound A-186] | good to average | –
42 | Cc1ccc(Cl)c(C(=O)NCCc2ncc(C(F)(F)F)cc2Cl)c1F [Compound A-182] | good to average | –
43 | CS(=O)(=O)c1ccc(C(=O)NCCc2ncc(C(F)(F)F)cc2Cl)c(Cl)c1O [Compound A-136] | good to average | –
44 | CS(=O)(=O)c1ccc(C(=O)NCCc2ncc(C(F)(F)F)cc2Cl)c(C(F)(F)F)c1 [Compound A-138] | good to average | –
45 | Cc1cccc(C(=O)NCCc2ncc(C(F)(F)F)cc2Cl)c1N [Compound A-194] | good to average | –
46 | O=C(NCCc1ncc(C(F)(F)F)cc1Cl)c1ccc(Cl)cc1I [Compound A-176] | good to average | –
47 | COc1ccc(C(C)(C)C)cc1C(=O)NCCc1ncc(C(F)(F)F)cc1Cl [Compound A-92] | good to average | –
48 | CSc1ccc(Cl)c(C(=O)NCCc2ncc(C(F)(F)F)cc2Cl)c1 [Compound A-99] | good to average | –
49 | CCOc1ccccc1C(=O)NCCc1ncc(C(F)(F)F)cc1Cl [Compound A-86] | good to average | –
50 | Cc1cccc(C(=O)NCCc2ncc(C(F)(F)F)cc2Cl)c1I [Compound A-179] | good to average | –
51 | O=C(NCCc1ncc(C(F)(F)F)cc1Cl)c1cc(Cl)ccc1I [Compound A-188] | good to average | –
52 | CCCOc1ccccc1C(=O)NCCc1ncc(C(F)(F)F)cc1Cl [Compound A-91] | good to average | –
53 | CSc1c(C(=O)NCCc2ncc(C(F)(F)F)cc2Cl)ccc(Cl)c1Br [Compound A-146] | good to average | –
54 | O=C(NCCc1ncc(C(F)(F)F)cc1Cl)c1cc(C(F)(F)F)ccc1C(F)(F)F [Compound A-72] | good to average | –
55 | CS(=O)(=O)c1cc(Cl)ccc1C(=O)NCCc1ncc(C(F)(F)F)cc1Cl [Compound A-128] | good to average | –
56 | COc1ccc(OC)c(C(=O)NCCc2ncc(C(F)(F)F)cc2Cl)c1 [Compound A-85] | good to average | –
57 | O=C(NCCc1ncc(C(F)(F)F)cc1Cl)c1c(C(F)(F)F)ccc(Cl)c1F [Compound A-75] | good to average | –
58 | COc1cc(OC)c(C(=O)NCCc2ncc(C(F)(F)F)cc2Cl)cc1OC [Compound A-84] | good to average | –
59 | CSc1c(F)ccc(C(=O)NCCc2ncc(C(F)(F)F)cc2Cl)c1F [Compound A-165] | good to average | –
